Assay results taken from patent publication US12522836B2, “Nonhuman animal and use for same” (Inter-University Research Institute Corporation Research …, priority 2019, dated 2026).

What was measured:
[1] = molecular target: T1, OsTIR1(F74G)/mAID-EGFP-NLS expressing cell (Oryza sativa subsp. japonica, UniProt Q7XVM8, F74G); assay: FACS analysis of degradation of mAID-EGFP-NLS after addition of auxin analog; assay type: cell-based, human; settings: Example 2; 50 nM, 100 nM, 500 nM or 1 μM, 24 hours; compared with OsTIR1(WT) cell plus auxin
T1 construct: expressed in transfected cells; host or cells: HCT116
Protocol: An HCT116 cell (human colon adenocarcinoma-derived cell) having DNA in which an OsTIR1(WT) gene or OsTIR1(F74G) gene and an mAID-EGFP (green fluorescent protein)-NLS (nuclear localization signal) gene were encoded through a P2A sequence inserted onto a chromosome by a transposon (hereinafter, referred to as “OsTIR1(WT)/mAID-EGFP-NLS expressing cell” or “OsTIR1(F74G)/mAID-EGFP-NLS expressing cell”) was prepared (refer to FIG. 1).
The auxin analog (concentration in culture medium: […]) was added to the OsTIR1(F74G)/mAID-EGFP-NLS expressing cell and cultured for 24 hours. In addition, as a control, a cell containing an auxin added to the OsTIR1(WT)/mAID-EGFP-NLS expressing cell was also prepared.
After 24 hours from the addition of the auxin analog, the cells were collected, and FACS analysis was performed.
An HCT116 cell (human colon adenocarcinoma-derived cell) in which a plasmid containing an OsTIR1(WT) gene or OsTIR1(F74G) gene was introduced and an mAID-EGFP (green fluorescent protein)-NLS (nuclear localization signal) gene was inserted onto a chromosome (hereinafter, referred to as “OsTIR1(WT)/mAID-EGFP-NLS expressing cell” or “OsTIR1(F74G)/mAID-EGFP-NLS expressing cell”) was prepared (refer to FIG. 1).
The auxin analog (concentration in culture medium: 0, 50 nM, 100 nM, 500 nM or 1 μM) was added to the OsTIR1(F74G)/mAID-EGFP-NLS expressing cell and cultured for 24 hours. […]

[2] = molecular target: T2, OsTIR1(F74G)/DHC1-mAID-Clover expressing cell (Oryza sativa subsp. japonica, UniProt Q7XVM8, F74G); assay: Degradation induction test of DHC1 (microscopy, Western blotting); assay type: cell-based, human
T2 construct: expressed in transfected cells; host or cells: HCT116 (OsTIR1 at AAVS1 locus; knock-in at the endogenous DHC1 gene)
Source text: In the HCT116 cell, an OsTIR1(WT) gene or OsTIR1(F74G) gene was introduced into an AAVS1 gene locus, which is a safe harbor site, using a CRISPR/Cas system, and an OsTIR1(WT)-expressed HCT116 cell or OsTIR1(F74G)-expressed HCT116 cell was constructed.
A plasmid vector having mAID, clover and a neomycin resistance gene and having a homologous sequence with respect to a DHC1 gene so as to sandwich mAID and the neomycin resistance gene was introduced into the OsTIR1(WT)-expressed HCT116 cell or OsTIR1(F74G)-expressed HCT116 cell using a CRISPR/Cas9 system, and homologous recombination with the endogenous DHC1 gene was performed. Next, after selection by G418, the formed colony was dyed using crystal violet. “DHC1” is the abbreviation for dynein heavy chain 1.
A degradation induction test of DHC1 was performed using the HCT116 cell expressing OsTIR1(F74G) on which homologous recombination had been performed in the above-described section 2 (hereinafter, referred to as “OsTIR1(F74G)/DHC1-mAID-Clover expressing cell”).
The compound indicated by the formula (I-2) (also referred to as 5-Ph-IAA) was added to the OsTIR1(F74G)/DHC1-mAID-Clover expressing cell, and the appearance of the cell after 24 hours was observed (FIG. 4(A)).
Furthermore, the degradation of DHC1 was confirmed by Western blotting (FIG. 4(B)).

[3] = molecular target: T3, mAID-EGFP-CENPH (Oryza sativa subsp. japonica, UniProt Q7XVM8, F74G); assay: Western blotting of mAID-EGFP-CENPH degradation in HeLa cell (transposon vector + CRISPR-KO system); assay type: cell-based, human; settings: anti-CENPH antibody, endogenous CENPH knocked out
T3 construct: P2A linker (self-cleaving; remnant); expressed in transfected cells; host or cells: HeLa
Source text: (§1) In this degradation system, (1) a transposon vector in which an OsTIR1(F74G) gene and an mAID-target gene are connected by a P2A linker gene and (2) a CRISPR-KO vector for knocking out an endogenous target gene containing gRNA and a Cas9 gene are contained.
(§2) In this degradation system, the OsTIR1(F74G) gene and the mAID-target gene in a genome are integrated by the transposon vector, and an endogenous target gene is knocked out by the CRISPR-KO vector.
(§3) The transposon vector in which an OsTIR1(F74G) gene and an mAID-EGFP-CENPH or mAID-EGFP-POLD1 target gene were connected by a P2A linker gene was constructed, and this vector was introduced into a HeLa cell together with the CRISPR-KO vector targeting an endogenous CENPH or POLD1 gene. 5-Ph-IAA was added to such a cell, and the degradation of the target protein was confirmed by Western blotting (FIG. 6).

[4] = molecular target: T4, mAID-EGFP-POLD1 (Oryza sativa subsp. japonica, UniProt Q7XVM8, F74G); assay: Western blotting of mAID-EGFP-POLD1 degradation in HeLa cell (transposon vector + CRISPR-KO system); assay type: cell-based, human; settings: anti-POLD1 antibody, clones #1 to #3, endogenous POLD1 knocked out
T4 construct: P2A linker (self-cleaving; remnant); expressed in transfected cells; host or cells: HeLa
Source text: as §1, §2, §3

[5] = Toxicity evaluation in mice (body weight); assay type: in vivo; settings: 1, 3 and 10 mg/kg intraperitoneally daily for 1 week
Protocol: Toxicity was evaluated by intraperitoneally administering 0, 1, 3, and 10 mg/kg of 5-Ph-IAA daily for 1 week. As shown in FIG. 7(B), a change in body weight of the mice which had been subjected to the administration was not observed.

[6] = tested on: HCT116 cells expressing OsTIR1(F74G); assay: Control xenograft of HCT116 cells expressing OsTIR1(F74G) in nude mice; assay type: in vivo; settings: 1, 3 and 10 mg/kg intraperitoneally daily, day 7 to day 14; control without degron-tagged target
[7] = molecular target: T5, mAID-BRD4 xenografts (Oryza sativa subsp. japonica, UniProt Q7XVM8, F74G); assay: mAID-BRD4 cell xenograft tumor growth in nude mice; assay type: in vivo
T5 construct: expressed in transfected cells; host or cells: HCT116 CMV-OsTIR1(F74G), xenografted into nude mice
Protocol: (§4) Subsequently, mAID-BRD4 cells or TOP2A-mAC cells were subcutaneously transplanted into nude mice and xenograft tumors were formed in 1 week. After that, 0, 1, 3, and 10 mg/kg of 5-Ph-IAA were intraperitoneally administered daily for an additional week (day 7 to day 14). […] It was confirmed that, when the AID2 system is used, mAID-BRD4 and TOP2A-mAC were successfully removed in a living body of mice, causing tumor suppression.
Furthermore, 3 mg/kg of 5-Ph-IAA was orally administered to nude mice in which mAID-BRD4 cells were xenografted. FIG. 13(A) is a diagram showing an oral administration schedule of 5-Ph-IAA.

[8] = molecular target: T6, TOP2A-mAC xenografts (Oryza sativa subsp. japonica, UniProt Q7XVM8, F74G); assay: TOP2A-mAC cell xenograft tumor growth in nude mice; assay type: in vivo; settings: 1, 3 and 10 mg/kg intraperitoneally daily, day 7 to day 14
T6 construct: expressed in transfected cells; host or cells: HCT116 CMV-OsTIR1(F74G), xenografted into nude mice
Protocol: as §4

[9] = molecular target: T7, mAID-EGFP reporters (Oryza sativa subsp. japonica, UniProt Q7XVM8, F74G); assay: Reporter removal in transgenic mice expressing OsTIR1(F74G) and mAID-EGFP reporter; assay type: in vivo
T7 construct: expressed in transfected cells; host or cells: transgenic mice (organs and E13.5 embryos)
Protocol: In order to further confirm whether the AID2 system functioned in a living body of mice, an attempt to establish transgenic mice expressing OsTIR1(WT) or OsTIR1(F74G) together with mAID-EGFP reporters was performed. As shown in FIG. 11(A), OsTIR1(WT) was confirmed to cause embryonic lethality. In contrast, the establishment of a plurality of mouse strains expressing OsTIR1(F74G) and reporters was confirmed (refer to FIG. 11(A).
Two adult female transgenic mice from the same TG strain were used to remove reporters in a plurality of organs.
First, as shown in FIG. 11(B), the expression of reporters in the ovaries and fallopian tubes surgically removed from untreated transgenic mice was confirmed.
Subsequently, pseudo-administration is performed on one mouse and 10 mg/kg 5-ph-IAA was intraperitoneally administered to the other mouse. […] The same data was obtained for adult male mice derived from the same TG strain.
Finally, the expression of the reporter in embryos was examined to confirm a rate of removal of a target protein using the AID2 system in vivo. 5 mg/kg of 5-Ph-IAA was intraperitoneally administered to pregnant females with E13.5 embryos. As shown in FIG. 11(D), a reporter signal disappeared within 1 hour after administration and rapid removal of the reporter in vivo was confirmed.

[10] = tested on: OsTIR1(F74A)/mAID-EGFP-NLS-expressing cells; assay: Reversibility of the AID2 system: reporter recovery after removal of 5-Ph-IAA; assay type: cell-based; settings: medium replaced with medium without 5-Ph-IAA

O=C(O)Cc1c[nH]c2ccc(-c3ccccc3)cc12 [5-Ph-IAA, 5-phenyl-indole 3-acetic acid]
degradation of GFP (FACS) at low concentrations [1]: functioned at a considerably low concentration | appearance of the cell (mitotic accumulation) ([2]; 24 hours after addition): accumulation of cells in the mitotic period was observed | degradation of DHC1-mAID-Clover fused protein (microscopic images) ([2]; 24 hours after addition): degraded a DHC1-mAID-Clover fused protein | degradation of DHC1 and mAID by Western blotting ([2]; clones #1 to #3): degradation of DHC1 and mAID was confirmed | degradation of mAID-EGFP-CENPH by Western blotting [3]: degradation of mAID-EGFP-CENPH was confirmed | degradation of mAID-EGFP-POLD1 by Western blotting [4]: degradation of mAID-EGFP-POLD1 was confirmed | change in body weight [5]: not observed | tumor suppression [6]: the tumor suppression was not observed | tumor suppression ([7]; 3 mg/kg orally): significant tumor suppression | tumor suppression ([7]; 1, 3 and 10 mg/kg intraperitoneally daily, day 7 to day 14): significant tumor suppression | tumor suppression [8]: a similar tendency was observed | time to disappearance of reporter signal in embryos ([9]; 5 mg/kg intraperitoneally to pregnant females with E13.5 embryos): ≤ 1 h | expression of the reporter in organs ([9]; 10 mg/kg intraperitoneally, 6 hours after administration, ovary, fallopian tubes, small intestine, heart, bladder, brain, adult female): significantly reduced | time to full restoration of reporter expression after medium replacement [10]: 3 h
